Laboratory results taken from paper PMC10648877, “Novel Substituted Azoloazines with Anticoagulant Activity” (International Journal of Molecular Sciences, 2023).
pEC50: −log10 of the molar value. “And” between values parts separate entries of the source, which are not always exact repeats. Equal entries are not always repeated.

What was measured:
[1] = tested on: platelet-poor plasma (PPP); assay: Thrombin time (TT), rabbit blood coagulogram in vitro; type: biochemical; conditions: for Δ% of Thrombin Time Prolongation Relative to Control / EC50: without LPS; for TT: M ± m, n = 6; for EC50: concentration that prolongs clot formation time by 50%, read-out: EC50, μM (thrombin time prolongation)
[2] = tested on: platelet-poor plasma (PPP); assay: Activated partial thromboplastin time (APTT), rabbit blood coagulogram in vitro; type: biochemical; conditions: 100 μM; for APTT: M ± m, n = 6;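 as to all read-outs here: clotting time read chronometrically on a hemocoagulometer with commercial reagent kits, one of several coagulogram parameters alongside thrombin and prothrombin time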
Experimental: Test compounds and the reference drug were evaluated at a concentration of 100 μM. Effect on rabbit blood coagulograms in vitro was determined chronometrically with a SOLAR hemocoagulometer (Minsk, Belarus) using commercial kits (Technology-Standard, Barnaul, Russia) as per the manufacturer’s instructions. The following parameters were determined: activated partial thromboplastin time, thrombin time, and prothrombin time.

coagulograms of rats [3] = assay: Thrombin time after single intragastric administration, rats without hypercytokinemia; type: in vivo, rat; conditions: dabigatran etexilate 12 mg/kg; for increase of thrombin time relative to intact control: intact rats, 2 h after intragastric administration, 5d 5.5 mg/kg; for TT: rats without hypercytokinemia, single intragastric dose, 2 h, 5d 5.5 mg/kg (equimolar)
Experimental: (§1) Distilled water was used as a solvent. In all experiments, control animals were injected with an equivalent volume of a vehicle. The reference drug dabigatran etexilate was administered to rats 2 h before the study at a 12 mg/kg dose (equivalent to the human dose, taking into account the interspecies conversion factor). Compound 5d was administered to rats 2 h before the study in a 5.5 mg/kg dose, equimolar to the dose of dabigatran etexilate.
(§2) To stabilize the blood, a 3.8% aqueous solution of sodium citrate (pH 6.0) was used in a ratio of 9:1. Coagulogram parameters of platelet-poor plasma were measured with a SOLAR coagulometer according to the methods described above.

LPS-treated PPP [4] = assay: Thrombin time, rabbit blood treated with LPS in vitro (hypercytokinemia); type: biochemical; conditions: for Δ % of Thrombin Time Prolongation Relative To Control + LPS: with LPS; for prolongation of thrombin time relative to LPS-treated blood control: LPS-treated rabbit blood in vitro
Experimental: (§3) Hypercytokinemia conditions were modeled by incubation of whole blood with S. typhimurium LPS (Sigma Aldrich, St. Louis, MO, USA) at a final concentration of 20 ng/mL and subsequent preparation of PPP.
(§4) The calculation of EC50 (effective concentration that prolongs the time of clot formation by 50%) was performed using linear regression analysis.

[5] = tested on: platelet-poor plasma (PPP); assay: Ecarin clotting time in vitro; type: biochemical; conditions: for pEC50: concentration range 100 to 1 μM
Experimental: The ecarin clotting time was designed for the determination of antithrombin anticoagulant activity in platelet-poor plasma. Venous blood was collected into a 15 mL Falcon type plastic tube with 3.8% sodium citrate solution (0.5 mL of sodium citrate per 5 mL of blood), centrifuged on a CM-6M centrifuge (Elmi, Riga, Latvia) at room temperature from 18 to 25 °C for 15 min at 3000 rpm (1200× g). The obtained plasma was withdrawn using an automatic pipette and transferred to a separate clean, dry plastic tube. After that, the obtained plasma was recentrifuged under the same conditions and the upper third of the plasma was taken for analysis.
The ecarin stock solution (STA-ECT, Stago, Düsseldorf, Germany) was prepared according to the manufacturer’s instructions and diluted to 4 units/mL with HEPES-buffered saline (0.2 M) containing 0.025 M calcium chloride.
The tested samples were investigated in the concentration range from 100 to 1 μM for IC50 determination.
Prepared reagents and platelet-poor plasma were heated to 37 °C. The assay was performed on a Solar CGL2120 coagulometer (Belarus), adding 50 µL of the reagent ecarin to 100 µL of PPP and recording the clotting time.
as §4

coagulograms of rats [6] = assay: APTT after single intragastric administration, rats with hypercytokinemia (LPS); type: in vivo, rat; conditions: dabigatran etexilate 12 mg/kg; for prolongation of APTT in relation to the LPS control group: LPS-injected rats, 5d 5.5 mg/kg intragastric; for APTT: rats with hypercytokinemia (LPS 2 mg/kg i.v.), single intragastric dose, 2 h, 5d 5.5 mg/kg
Experimental: as §1, §2
(§5) Hypercytokinemia conditions were modeled by an intravenous injection of S. typhimurium LPS (Sigma Aldrich, St. Louis, MO, USA) at a final dose of 2 mg/kg into the tail vein of the rats 2 h before the administration of the substances. The evaluation of anticoagulant activity was conducted according to the methods described above.

coagulograms of rats [7] = assay: Prothrombin time after single intragastric administration, rats without hypercytokinemia; type: in vivo, rat; conditions: for PT: single intragastric dose, 2 h, dabigatran etexilate 12 mg/kg, 5d 5.5 mg/kg (equimolar)
Experimental: (§6) Distilled water was used as a solvent. In all experiments, control animals were injected with an equivalent volume of a vehicle. The reference drug dabigatran etexilate was administered to rats 2 h before the study at a 12 mg/kg dose (equivalent to the human dose, taking into account the interspecies conversion factor).
(§7) Coagulogram parameters of platelet-poor plasma were measured with a SOLAR coagulometer according to the methods described above.

LPS-treated PPP [8] = assay: APTT, rabbit blood treated with LPS in vitro (hypercytokinemia); type: biochemical; conditions: 100 μM; for APTT: rabbit blood treated with LPS in vitro
Experimental: as §3

coagulograms of rats [9] = assay: APTT after single intragastric administration, rats without hypercytokinemia; type: in vivo, rat; conditions: dabigatran etexilate 12 mg/kg; for prolongation of APTT compared to the control: intact rats, 2 h after intragastric administration, 5d 5.5 mg/kg; for APTT: rats without hypercytokinemia, single intragastric dose, 2 h, 5d 5.5 mg/kg (equimolar)
Experimental: as §1, §2

coagulograms of rats [10] = assay: Thrombin time after single intragastric administration, rats with hypercytokinemia (LPS); type: in vivo, rat; conditions: for increase of thrombin time in relation to the LPS control group: LPS-injected rats, 5d 5.5 mg/kg intragastric; for antithrombin effect under systemic inflammation reaction versus its absence: rats, single intragastric administration
Experimental: as §1, §2, §5

coagulograms of rats [11] = assay: Prothrombin time after single intragastric administration, rats with hypercytokinemia (LPS); type: in vivo, rat; conditions: for PT: rats with hypercytokinemia (LPS 2 mg/kg i.v.), single intragastric dose, 2 h, dabigatran etexilate 12 mg/kg, 5d 5.5 mg/kg; for effect on prothrombin time: rats with systemic inflammatory reaction (LPS)
Experimental: as §6, §7, §5

LPS-treated PPP [12] = assay: Prothrombin time, rabbit blood treated with LPS in vitro (hypercytokinemia); type: biochemical; conditions: 100 μM
Experimental: as §3

[13] = tested on: platelet-poor plasma (PPP); assay: Prothrombin time (PT), rabbit blood coagulogram in vitro; conditions: 100 μM; for PT: M ± m, n = 6;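 as to all read-outs here: clotting time read chronometrically on a hemocoagulometer using commercial reagent kits, with dabigatran etexilate at the same concentration as reference anticoagulant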
Experimental: The study was performed on platelet-poor plasma (PPP) stabilized with a 3.8% sodium citrate solution in a ratio of 9:1 according to the method described in [34]. Dabigatran etexilate (Boehringer Ingelheim Pharma GmbH and Co., Ingelheim am Rhein, Germany) was used as the reference drug. Test compounds and the reference drug were evaluated at a concentration of 100 μM. Effect on rabbit blood coagulograms in vitro was determined chronometrically with a SOLAR hemocoagulometer (Minsk, Belarus) using commercial kits (Technology-Standard, Barnaul, Russia) as per the manufacturer’s instructions. The following parameters were determined: activated partial thromboplastin time, thrombin time, and prothrombin time.

[14] = rats with hypercytokinemia (LPS 2 mg/kg i.v.), single intragastric dose, 2 h, dabigatran etexilate 12 mg/kg, 5d 5.5 mg/kg

Row | Compound | Δ% of Thrombin Time Prolongation Relative to Control ([1]; 1 μM) | Δ% of Thrombin Time Prolongation Relative to Control ([1]; 5 μM) | Δ% of Thrombin Time Prolongation Relative to Control ([1]; 10 μM) | TT ([1]; rabbit blood in vitro, 100 μM) [s] | EC50 [1] | increase of APTT relative to the control [2] [times] | APTT [2] [s] | increase of thrombin time relative to intact control (coagulograms of rats [3]) [times] | TT (coagulograms of rats [3]) [s] | Δ % of Thrombin Time Prolongation Relative To Control + LPS (LPS-treated PPP [4]; 1 μM) | Δ % of Thrombin Time Prolongation Relative To Control + LPS (LPS-treated PPP [4]; 5 μM) | Δ % of Thrombin Time Prolongation Relative To Control + LPS (LPS-treated PPP [4]; 10 μM) | prolongation of thrombin time relative to LPS-treated blood control (LPS-treated PPP [4]; 100 μM) [times] | ecarin clotting time ([5]; 1 μM) [s] | ecarin clotting time ([5]; 10 μM) [s] | pEC50 [5] | prolongation of APTT in relation to the LPS control group (coagulograms of rats [6]) [times] | APTT (coagulograms of rats [6]) [s] | PT (coagulograms of rats [7]) [s] | APTT (LPS-treated PPP [8]) [s] | also measured
1 | CCCCCCOC(=O)N=C(N)c1ccc(NCc2nc3cc(C(=O)N(CCC(=O)OCC)c4ccccn4)ccc3n2C)cc1 [Dabigatran etexilate, reference compound] | 42.3 ± 5.6 % | 176.1 ± 15.3 % | 302.0 ± 34.4 % | 70.23 ± 3.15 | 1.4 µM | 1.6 | 75.26 ± 2.61 | 10.5 | 603.9 ± 14.2 | 51.7% and 51.7 ± 0.5% | 208.6% | 292.0% | 14.0 | 41.6 | 54.1 | 4.98 | 2.2 | 41.0 ± 2.0 | 31.2 ± 1.3 | 135.13 ± 15.17 | Δ% of Thrombin Time Prolongation Relative to Control ([1]; 0.1 μM): 1.4 ± 0.4 %; Δ% of Thrombin Time Prolongation Relative to Control ([1]; 1 μM, listed as dabigatran etexilate): 42.3%; Δ% of Thrombin Time Prolongation Relative to Control ([1]; 5 μM, listed as dabigatran etexilate): 176.1%; thrombin time ([1]; 10 μM, intact PPP): 46.8 s; Δ% of Thrombin Time Prolongation Relative to Control ([1]; 10 μM, listed as dabigatran etexilate): 302.0%; increase of thrombin time relative to the control ([1]; rabbit blood in vitro, 100 μM): 6.0 times; TT (LPS-treated PPP [4]; rabbit blood treated with LPS in vitro, 100 μM): 125.45 ± 1.54 s; lengthening of ecarin clotting time compared to control ([5]; 100 μM): 2.3 fold; effect on prothrombin time (coagulograms of rats [7]): did not change; prolongation of APTT relative to LPS-treated blood (LPS-treated PPP [8]; LPS-treated rabbit blood in vitro): 2.3 times; prolongation of APTT compared to the control (coagulograms of rats [9]): 3.6 times; APTT (coagulograms of rats [9]): 137.5 ± 2.2 s; increase of thrombin time in relation to the LPS control group (coagulograms of rats [10]; dabigatran etexilate 12 mg/kg): 12.8 times; TT (coagulograms of rats [10]; [14]): 566.1 ± 11.5 s; antithrombin effect under systemic inflammation reaction versus its absence (coagulograms of rats [10]): did not change; PT (coagulograms of rats [11]): 28.1 ± 1.0 s; effect on prothrombin time (coagulograms of rats [11]): neither the test compound nor dabigatran etexilate had an effect; PT (LPS-treated PPP [12]): 15.73 ± 0.20 s; effect on prothrombin time [13]: without changing the prothrombin time; PT [13]: 14.20 ± 0.38 s
2 | C1=C(c2cccs2)n2ncnc2NC1c1cccs1 (stereo not drawn) [Compound 5d, 7,5-Di(2-thienyl)-4,5-dihydro-[1,2,4]triazolo[1,5-a]pyrimidine] | 46.5% and 46.5 ± 6.7 % | 194.1% and 194.1 ± 10.0 % | 467.1% and 467.1 ± 14.4 % | 154.43 ± 11.14 | 1.25 µM and 1.3 µM | 1.3 | 61.78 ± 4.58 | 5.6 | 325.3 ± 5.1 | 56.3% and 56.3 ± 1.1 % | 234.1% and 234.1 ± 4.2 ^#$ % | 354.1% and 354.1 ± 6.5 ^#$ % | 17.0 | 40.2 | 50.5 | 4.75 | 1.6 | 28.7 ± 1.0 | 24.5 ± 1.1 | 61.78 ± 4.58 | prolongation of thrombin time exceeding dabigatran etexilate ([1]; rabbit blood in vitro, 100 μM, versus reference drug): 2.2 times; ecarin clotting time ([5]; 100 μM): 81.3 s; prolongation of APTT compared to the control (coagulograms of rats [9]): 1.5 times; APTT (coagulograms of rats [9]): 59.2 ± 8.3 s; increase of thrombin time in relation to the LPS control group (coagulograms of rats [10]; dabigatran etexilate 12 mg/kg): 14.5 times; TT, s (coagulograms of rats [10]; [14]): 640.3 ± 7.4 ^#$ s; antithrombin effect under systemic inflammation reaction versus its absence (coagulograms of rats [10]): twice as pronounced; PT (coagulograms of rats [11]): 26.4 ± 1.4 s; effect on prothrombin time (coagulograms of rats [11]): neither the test compound nor dabigatran etexilate had an effect; PT (LPS-treated PPP [12]): 14.08 ± 0.4 s; effect on prothrombin time [13]: did not affect the prothrombin time; PT [13]: 14.08 ± 0.4 s
